Data as given in patent publication US20240376163A1, “PEPTIDE FOR INHIBITING CALCINEURIN AND USE THEREOF” (Seoul National University R&DB Foundation, priority 2023, published 2024).

Tested on: Jurkat T cells
Experiment: mRNA sequencing of activated Jurkat T cells
Format: cell-based, human
Conditions: P + I

Structure (SMILES): C=CC[C@@H]1/C=C(\C)C[C@H](C)C[C@H](OC)[C@H]2O[C@@](O)(C(=O)C(=O)N3CCCC[C@H]3C(=O)O[C@H](/C(C)=C/[C@@H]3CC[C@@H](O)[C@H](OC)C3)[C@H](C)[C@@H](O)CC1=O)[C@H](C)C[C@@H]2OC [FK506, Tacrolimus, reference compound]
- SMAD1 FPKM (Jurkat T cells): 4.873 FPKM
- SMOX FPKM (Jurkat T cells): 14.9 FPKM
- SMPD1 FPKM (Jurkat T cells): 20.599 FPKM
- SORBS1 FPKM (Jurkat T cells): 0.4 FPKM
- SOX4 FPKM (Jurkat T cells): 76.17 FPKM
- SPINT1 FPKM (Jurkat T cells): 1.948 FPKM
- SPRY1 FPKM (Jurkat T cells): 4.074 FPKM
- SPRY4 FPKM (Jurkat T cells): 9.613 FPKM
- SPSB1 FPKM (Jurkat T cells): 10.137 FPKM
- SPTBN2 FPKM (Jurkat T cells): 2.135 FPKM
- SRGN FPKM (Jurkat T cells): 10.812 FPKM
- SSBP2 FPKM (Jurkat T cells): 7.127 FPKM
- ST3GAL6 FPKM (Jurkat T cells): 4.018 FPKM
- STAT2 FPKM (Jurkat T cells): 37.805 FPKM
- STAT3 FPKM (Jurkat T cells): 83.385 FPKM
- STAU2 FPKM (Jurkat T cells): 7.124 FPKM
- STMN3 FPKM (Jurkat T cells): 10.423 FPKM
- STX1A FPKM (Jurkat T cells): 16.1 FPKM
- SYK FPKM (Jurkat T cells): 7.044 FPKM
- TAGAP FPKM (Jurkat T cells): 4.352 FPKM
- TAL1 FPKM (Jurkat T cells): 22.337 FPKM
- TAP2 FPKM (Jurkat T cells): 5.187 FPKM
- TAPBPL FPKM (Jurkat T cells): 19.59 FPKM
- TBC1D4 FPKM (Jurkat T cells): 12.549 FPKM
- TBC1D5 FPKM (Jurkat T cells): 4.088 FPKM
- TBKBP1 FPKM (Jurkat T cells): 16.894 FPKM
- TCF3 FPKM (Jurkat T cells): 39.165 FPKM
- TCF7 FPKM (Jurkat T cells): 13.065 FPKM
- TCF12 FPKM (Jurkat T cells): 34.798 FPKM
- TDRD9 FPKM (Jurkat T cells): 1.245 FPKM
- TGFBR2 FPKM (Jurkat T cells): 36.615 FPKM
- THEM6 FPKM (Jurkat T cells): 3.232 FPKM
- THEMIS FPKM (Jurkat T cells): 33.406 FPKM
- TIAF1 FPKM (Jurkat T cells): 12.479 FPKM
- TIAM1 FPKM (Jurkat T cells): 8.466 FPKM
- TIAM2 FPKM (Jurkat T cells): 0.27 FPKM
- TLE1 FPKM (Jurkat T cells): 1.864 FPKM
- TMCC3 FPKM (Jurkat T cells): 4.527 FPKM
- TNFAIP3 FPKM (Jurkat T cells): 25.168 FPKM
- TNFRSF10B FPKM (Jurkat T cells): 25.474 FPKM
- TNFSF10 FPKM (Jurkat T cells): 24.883 FPKM
- TNFSF14 FPKM (Jurkat T cells): 1.023 FPKM
- TPM4 FPKM (Jurkat T cells): 202.311 FPKM
- TPST2 FPKM (Jurkat T cells): 21.077 FPKM
- TRAF3IP3 FPKM (Jurkat T cells): 15.012 FPKM
- TRIB1 FPKM (Jurkat T cells): 5.422 FPKM
- TRIM21 FPKM (Jurkat T cells): 45.856 FPKM
- TTLL1 FPKM (Jurkat T cells): 3.69 FPKM
- UBE2L6 FPKM (Jurkat T cells): 164.565 FPKM
- UHRF1 FPKM (Jurkat T cells): 8.288 FPKM
- VAMP1 FPKM (Jurkat T cells): 14.793 FPKM
- VAT1 FPKM (Jurkat T cells): 44.696 FPKM
- VAV1 FPKM (Jurkat T cells): 30.218 FPKM
- WARS FPKM (Jurkat T cells): 105.541 FPKM
- WDR76 FPKM (Jurkat T cells): 8.368 FPKM
- XCL1 FPKM (Jurkat T cells): 0 FPKM
- XCL2 FPKM (Jurkat T cells): 0 FPKM
- XIRP1 FPKM (Jurkat T cells): 6.348 FPKM
- XRCC6BP1 FPKM (Jurkat T cells): 9.744 FPKM
- YPEL1 FPKM (Jurkat T cells): 5.628 FPKM
- ZFP36L1 FPKM (Jurkat T cells): 153.648 FPKM
- ZFP36L2 FPKM (Jurkat T cells): 13.343 FPKM
- ZNF280D FPKM (Jurkat T cells): 2.345 FPKM
- ZNF367 FPKM (Jurkat T cells): 2.354 FPKM
- ZNF480 FPKM (Jurkat T cells): 7.174 FPKM
- ZNF521 FPKM (Jurkat T cells): 2.011 FPKM
- ZNF652 FPKM (Jurkat T cells): 2.631 FPKM
- ZNF704 FPKM (Jurkat T cells): 0.014 FPKM
- ZNF827 FPKM (Jurkat T cells): 1.521 FPKM
- ZNFX1 FPKM (Jurkat T cells): 16.708 FPKM
- ZP4 FPKM (Jurkat T cells): 0.462 FPKM
- ZYX FPKM (Jurkat T cells): 127.794 FPKM
- ADORA2A FPKM: 0.998 FPKM
- AGK FPKM: 14.029 FPKM
- ARHGEF3 FPKM: 8.637 FPKM
- ASAP1 FPKM: 7.765 FPKM
- ATG14 FPKM: 7.863 FPKM
- ATP6V1B2 FPKM: 50.672 FPKM
- BCL2L1 FPKM: 39.402 FPKM
- C3 FPKM: 0.489 FPKM
- C10orf54 FPKM: 0.382 FPKM
- CABP1 FPKM: 1.201 FPKM
- CCDC64 FPKM: 10.044 FPKM
- CCL1 FPKM: 0 FPKM
- CCL3 FPKM: 0 FPKM
- CCL3L1 FPKM: 0 FPKM
- CCL3L3 FPKM: 0 FPKM
- CCL4 FPKM: 0 FPKM
- CCL4L1 FPKM: 0.087 FPKM
- CCL4L2 FPKM: 0.087 FPKM
- CCL20 FPKM: 0 FPKM
- CCND2 FPKM: 0.558 FPKM
- CD27-AS1 FPKM: 5.11 FPKM
- CD27 FPKM: 3.098 FPKM
- CD55 FPKM: 6.015 FPKM
- CD70 FPKM: 3.005 FPKM
- CD97 FPKM: 19.394 FPKM
- CD200 FPKM: 0 FPKM
- COL27A1 FPKM: 4.463 FPKM
- CREB5 FPKM: 0.577 FPKM
